Test results taken from ChEMBL document CHEMBL4393657, “Tetrazole hybrids and their antifungal activities” (2019).
Values after ≈ are worked out from the molar mass of the structure shown.

What was measured:
Type in all cases: functional
Cryptococcus neoformans = experiment: Antifungal activity against Cryptococcus neoformans LA314 assessed as reduction in fungal cell growth incubated for 48 hrs by broth microdilution method; conditions: LA314, 48 h
Nakaseomyces glabratus = experiment: Antifungal activity against Candida glabrata assessed as reduction in fungal cell growth incubated for 48 hrs by broth microdilution method
Candida parapsilosis = experiment: Antifungal activity against Candida parapsilosis ATCC 22019 assessed as reduction in fungal cell growth incubated for 48 hrs by broth microdilution method; conditions: Lodderomyces parapsilosis, ATCC 22019, 48 h
Pichia kudriavzevii = experiment: Antifungal activity against Candida krusei assessed as reduction in fungal cell growth incubated for 48 hrs by broth microdilution method
Candida albicans = experiment: Antifungal activity against Candida albicans assessed as reduction in fungal cell growth incubated for 48 hrs by broth microdilution method
Candida tropicalis = experiment: Antifungal activity against Candida tropicalis assessed as reduction in fungal cell growth incubated for 48 hrs by broth microdilution method
Aspergillus niger = experiment: Antifungal activity against Aspergillus niger assessed as reduction in fungal cell growth incubated for 72 hrs by broth microdilution method

Row | Compound | MIC (Cryptococcus neoformans) [µg/mL] | MIC (Nakaseomyces glabratus) [µg/mL] | MIC (Candida parapsilosis) [µg/mL] | MIC (Pichia kudriavzevii) [µg/mL] | MIC (Candida albicans) [µg/mL] | MIC (Candida tropicalis) [µg/mL] | MIC (Aspergillus niger) [µg/mL]
1 | CC(n1nnc(CCN2CCN(c3cccc(Cl)c3)CC2)n1)C(O)(Cn1cncn1)c1ccc(F)cc1F (stereo unspecified) | 1 to 16 (≈ 1.84 to 29.4 µM) | 1 to 16 (≈ 1.84 to 29.4 µM) | 1 to 16 (≈ 1.84 to 29.4 µM) | 1 to 16 (≈ 1.84 to 29.4 µM) | 1 to 16 (≈ 1.84 to 29.4 µM) | 1 to 16 (≈ 1.84 to 29.4 µM) | 1 to 16 (≈ 1.84 to 29.4 µM)
2 | CC(n1nnnc1CCN1CCN(c2ccccc2)CC1)C(O)(Cn1cncn1)c1ccc(F)cc1F (stereo unspecified) | 0.5 to 16 (≈ 0.981 to 31.4 µM) | 0.5 to 16 (≈ 0.981 to 31.4 µM) | 0.5 to 16 (≈ 0.981 to 31.4 µM) | 0.5 to 16 (≈ 0.981 to 31.4 µM) | 0.5 to 16 (≈ 0.981 to 31.4 µM) | 0.5 to 16 (≈ 0.981 to 31.4 µM) | 0.5 to 16 (≈ 0.981 to 31.4 µM)
3 | CCCCOc1ccccc1N1CCN(CCc2nnn(C(C)C(O)(Cn3cncn3)c3ccc(F)cc3F)n2)CC1 (stereo unspecified) | 1 to 16 (≈ 1.72 to 27.5 µM) | 1 to 16 (≈ 1.72 to 27.5 µM) | 1 to 16 (≈ 1.72 to 27.5 µM) | 1 to 16 (≈ 1.72 to 27.5 µM) | 1 to 16 (≈ 1.72 to 27.5 µM) | 1 to 16 (≈ 1.72 to 27.5 µM) | 1 to 16 (≈ 1.72 to 27.5 µM)
4 | OC(Cn1cncn1)(Cn1nnnc1CCN1CCN(c2cccc(C(F)(F)F)c2)CC1)c1ccc(F)cc1F (stereo unspecified) | 0.5 to 16 (≈ 0.887 to 28.4 µM) | 0.5 to 16 (≈ 0.887 to 28.4 µM) | 0.5 to 16 (≈ 0.887 to 28.4 µM) | 0.5 to 16 (≈ 0.887 to 28.4 µM) | 0.5 to 16 (≈ 0.887 to 28.4 µM) | 0.5 to 16 (≈ 0.887 to 28.4 µM) | 0.5 to 16 (≈ 0.887 to 28.4 µM)
5 | COc1ccccc1N1CCN(CCc2nnn(C(C)C(O)(Cn3cncn3)c3ccc(F)cc3F)n2)CC1 (stereo unspecified) | 1 to 16 (≈ 1.85 to 29.7 µM) | 1 to 16 (≈ 1.85 to 29.7 µM) | 1 to 16 (≈ 1.85 to 29.7 µM) | 1 to 16 (≈ 1.85 to 29.7 µM) | 1 to 16 (≈ 1.85 to 29.7 µM) | 1 to 16 (≈ 1.85 to 29.7 µM) | 1 to 16 (≈ 1.85 to 29.7 µM)
6 | OC(Cn1cncn1)(Cn1nnnc1CCN1CCN(c2ccccn2)CC1)c1ccc(F)cc1F (stereo unspecified) | 0.5 to 16 (≈ 1.01 to 32.2 µM) | 0.5 to 16 (≈ 1.01 to 32.2 µM) | 0.5 to 16 (≈ 1.01 to 32.2 µM) | 0.5 to 16 (≈ 1.01 to 32.2 µM) | 0.5 to 16 (≈ 1.01 to 32.2 µM) | 0.5 to 16 (≈ 1.01 to 32.2 µM) | 0.5 to 16 (≈ 1.01 to 32.2 µM)
7 | CC(n1nnnc1CCN1CCN(c2ccc(F)cc2)CC1)C(O)(Cn1cncn1)c1ccc(F)cc1F (stereo unspecified) | 0.5 to 16 (≈ 0.948 to 30.3 µM) | 0.5 to 16 (≈ 0.948 to 30.3 µM) | 0.5 to 16 (≈ 0.948 to 30.3 µM) | 0.5 to 16 (≈ 0.948 to 30.3 µM) | 0.5 to 16 (≈ 0.948 to 30.3 µM) | 0.5 to 16 (≈ 0.948 to 30.3 µM) | 0.5 to 16 (≈ 0.948 to 30.3 µM)
8 | O=[N+]([O-])c1ccc(N2CCN(CCc3nnn(CC(O)(Cn4cncn4)c4ccc(F)cc4F)n3)CC2)cc1 (stereo unspecified) | 1 to 16 (≈ 1.85 to 29.6 µM) | 1 to 16 (≈ 1.85 to 29.6 µM) | 1 to 16 (≈ 1.85 to 29.6 µM) | 1 to 16 (≈ 1.85 to 29.6 µM) | 1 to 16 (≈ 1.85 to 29.6 µM) | 1 to 16 (≈ 1.85 to 29.6 µM) | 1 to 16 (≈ 1.85 to 29.6 µM)

Other lines, results leading:

Row | MIC (Cryptococcus neoformans) [µg/mL] | MIC (Nakaseomyces glabratus) [µg/mL] | MIC (Candida parapsilosis) [µg/mL] | MIC (Pichia kudriavzevii) [µg/mL] | MIC (Candida albicans) [µg/mL] | MIC (Candida tropicalis) [µg/mL] | MIC (Aspergillus niger) [µg/mL] | Compound
9 | 0.5 to 16 (≈ 0.943 to 30.2 µM) | 0.5 to 16 (≈ 0.943 to 30.2 µM) | 0.5 to 16 (≈ 0.943 to 30.2 µM) | 0.5 to 16 (≈ 0.943 to 30.2 µM) | 0.5 to 16 (≈ 0.943 to 30.2 µM) | 0.5 to 16 (≈ 0.943 to 30.2 µM) | 0.5 to 16 (≈ 0.943 to 30.2 µM) | OC(Cn1cncn1)(Cn1nnnc1CCN1CCN(c2ccc(Cl)cc2)CC1)c1ccc(F)cc1F (stereo unspecified)
10 | 0.5 to 16 (≈ 0.864 to 27.7 µM) | 0.5 to 16 (≈ 0.864 to 27.7 µM) | 0.5 to 16 (≈ 0.864 to 27.7 µM) | 0.5 to 16 (≈ 0.864 to 27.7 µM) | 0.5 to 16 (≈ 0.864 to 27.7 µM) | 0.5 to 16 (≈ 0.864 to 27.7 µM) | 0.5 to 16 (≈ 0.864 to 27.7 µM) | CC(n1nnnc1CCN1CCN(c2c(Cl)cccc2Cl)CC1)C(O)(Cn1cncn1)c1ccc(F)cc1F (stereo unspecified)
11 | 0.12 to 16 (≈ 0.229 to 30.6 µM) | 0.12 to 16 (≈ 0.229 to 30.6 µM) | 0.12 to 16 (≈ 0.229 to 30.6 µM) | 0.12 to 16 (≈ 0.229 to 30.6 µM) | 0.12 to 16 (≈ 0.229 to 30.6 µM) | 0.12 to 16 (≈ 0.229 to 30.6 µM) | 0.12 to 16 (≈ 0.229 to 30.6 µM) | C[C@H](n1nnnc1CCN1CCN(Cc2ccccc2)CC1)[C@](O)(Cn1cncn1)c1ccc(F)cc1F
12 | 0.5 to 16 (≈ 0.919 to 29.4 µM) | 0.5 to 16 (≈ 0.919 to 29.4 µM) | 0.5 to 16 (≈ 0.919 to 29.4 µM) | 0.5 to 16 (≈ 0.919 to 29.4 µM) | 0.5 to 16 (≈ 0.919 to 29.4 µM) | 0.5 to 16 (≈ 0.919 to 29.4 µM) | 0.5 to 16 (≈ 0.919 to 29.4 µM) | CC(n1nnnc1CCN1CCN(c2ccc(Cl)cc2)CC1)C(O)(Cn1cncn1)c1ccc(F)cc1F (stereo unspecified)
13 | 0.5 to 16 (≈ 0.866 to 27.7 µM) | 0.5 to 16 (≈ 0.866 to 27.7 µM) | 0.5 to 16 (≈ 0.866 to 27.7 µM) | 0.5 to 16 (≈ 0.866 to 27.7 µM) | 0.5 to 16 (≈ 0.866 to 27.7 µM) | 0.5 to 16 (≈ 0.866 to 27.7 µM) | 0.5 to 16 (≈ 0.866 to 27.7 µM) | CC(n1nnnc1CCN1CCN(c2cccc(C(F)(F)F)c2)CC1)C(O)(Cn1cncn1)c1ccc(F)cc1F (stereo unspecified)
14 | 0.12 to 16 (≈ 0.206 to 27.5 µM) | 0.12 to 16 (≈ 0.206 to 27.5 µM) | 0.12 to 16 (≈ 0.206 to 27.5 µM) | 0.12 to 16 (≈ 0.206 to 27.5 µM) | 0.12 to 16 (≈ 0.206 to 27.5 µM) | 0.12 to 16 (≈ 0.206 to 27.5 µM) | 0.12 to 16 (≈ 0.206 to 27.5 µM) | CCCCOc1ccccc1N1CCN(CCc2nnnn2[C@@H](C)[C@](O)(Cn2cncn2)c2ccc(F)cc2F)CC1
15 | 0.25 to 16 (≈ 0.433 to 27.7 µM) | 0.25 to 16 (≈ 0.433 to 27.7 µM) | 0.25 to 16 (≈ 0.433 to 27.7 µM) | 0.25 to 16 (≈ 0.433 to 27.7 µM) | 0.25 to 16 (≈ 0.433 to 27.7 µM) | 0.25 to 16 (≈ 0.433 to 27.7 µM) | 0.25 to 16 (≈ 0.433 to 27.7 µM) | C[C@H](n1nnc(CCN2CCN(c3cccc(C(F)(F)F)c3)CC2)n1)[C@](O)(Cn1cncn1)c1ccc(F)cc1F
16 | 0.12 to 16 (≈ 0.235 to 31.4 µM) | 0.12 to 16 (≈ 0.235 to 31.4 µM) | 0.12 to 16 (≈ 0.235 to 31.4 µM) | 0.12 to 16 (≈ 0.235 to 31.4 µM) | 0.12 to 16 (≈ 0.235 to 31.4 µM) | 0.12 to 16 (≈ 0.235 to 31.4 µM) | 0.12 to 16 (≈ 0.235 to 31.4 µM) | C[C@H](n1nnnc1CCN1CCN(c2ccccc2)CC1)[C@](O)(Cn1cncn1)c1ccc(F)cc1F
17 | 0.12 to 16 (≈ 0.235 to 31.3 µM) | 0.12 to 16 (≈ 0.235 to 31.3 µM) | 0.12 to 16 (≈ 0.235 to 31.3 µM) | 0.12 to 16 (≈ 0.235 to 31.3 µM) | 0.12 to 16 (≈ 0.235 to 31.3 µM) | 0.12 to 16 (≈ 0.235 to 31.3 µM) | 0.12 to 16 (≈ 0.235 to 31.3 µM) | C[C@H](n1nnnc1CCN1CCN(c2ccccn2)CC1)[C@](O)(Cn1cncn1)c1ccc(F)cc1F
18 | 0.12 to 16 (≈ 0.216 to 28.9 µM) | 0.12 to 16 (≈ 0.216 to 28.9 µM) | 0.12 to 16 (≈ 0.216 to 28.9 µM) | 0.12 to 16 (≈ 0.216 to 28.9 µM) | 0.12 to 16 (≈ 0.216 to 28.9 µM) | 0.12 to 16 (≈ 0.216 to 28.9 µM) | 0.12 to 16 (≈ 0.216 to 28.9 µM) | C[C@H](n1nnnc1CCN1CCN(c2ccc([N+](=O)[O-])cc2)CC1)[C@](O)(Cn1cncn1)c1ccc(F)cc1F
